Laboratory results published in patent US9290688B2, “Alkaline microbial enhanced oil recovery” (GEO FOSSIL FUELS, LLC, priority 2011, dated 2016).

Assays:
[1] = tested on: Rhodococcus rhodochrous ATCC #53968; experiment: Digestion of Red River crude oil with and without beta-oxidation inhibitors; GC of methyl esters of extracted organic acids; format: cell-based; details: for Total GC (all peaks integrated by the GC integrator): 0.31 g oil sample; for conv. To umoles FA: approximately 1.0 micromoles per 100 area units; for Cal. AN (calculated acid number): estimated from GC areas
Method: (§1) An oil degrading microorganism was used to evaluate the use of chemical inhibitors to slow the utilization of hydrocarbons in petroleum. In a non-limiting example, three different chemical compounds that have been reported to inhibit beta-oxidation were tested in oil and culture medium on a petroleum sample with a strain of Rhodococcus rhodochrous ATCC #53968 in m9 minimal medium. To test the ability of each chemical inhibitor to slow the consumption of fatty acids a culture of bacteria was grown on a crude oil sample for a period of three days with crude petroleum oil as the only carbon source. Four separate flasks were set up, each with an oil to aqueous media ratio of 1 to 5 (10 ml of crude oil to 50 ml of culture medium). Each of the three chemical inhibitors was added to a separate flask and a fourth flask was allowed to digest without the addition of a chemical inhibitor as a control. The flasks were shaken at a room temperature of about 25° C. under aerobic conditions. The progress of the microbial digestion was monitored by the optical density at 600 nm and by visual inspection of the brown oil color in the aqueous phase. Three days after the addition of inhibitors, or a total of six days of incubation with oil, a small sample of oil (0.31 g) was removed. A second sample of the same size was remover after another 6 days. The organic acids were extracted from each oil sample with 1% NaOH in 70% ethanol. The samples were shaken vigorously for one minute. The aqueous extract material was then extracted with hexane to remove any trace of oil. The samples of extracted organic acids were then dried under vacuum and converted to methyl esters with BF3 in methanol.
The mixtures of methyl esters were analyzed by GC (gas chromatography) using a HP (Hewlett Packard) 5890 GC with an Agilent Technologies capillary column, HP-5 (crosslinked 5% PH) ME Siloxane 0.25 micrometer coating with a length of 30 meter and a column ID (internal diameter) of 0.32 mm. Helium was used as a carrier gas. Detection was by a FID detector and integration of peak areas was done with a HP 3396 integrator. The temperature program held an initial temperature of 40° C. for 1.0 minutes then increased at 15 degrees per minute to 280° C., and finally held at a temperature of 280° C. for 5 minutes. To quantify the amount of organic acids extracted by this procedure, a stock solution of 2-bromooctanoate and 2-bromohexadecanoate were added to a sample of undigested Red River crude petroleum oil and then extracted by the same procedure as the bio-digested oil samples. The average area for theses two organic acids was used to estimate the amount of organic acids in micromoles per area unit determined by the GC integrator. The number was calculated to be approximately 1.0 micromoles per 100 area units. The area units for each of the GC peaks are list in Table 2. This number was used to estimate the micromoles organic acids extracted from the oil. This estimate was used to calculate the number of mg of KOH that equaled the number of micromoles of organic acid estimated. This number is listed on the last row in Table 2 as the calculated AN (acid number) for each digestion experiment. These estimated numbers are only based on organic acids that are hydrophobic enough to stay in the oil phase and not move into the aqueous phase. Organic acids measured include the carboxylic acids made by the bacteria and that have been secreted out of the cell and have migrated back to the oil phase. They are also hydrocarbons that are small enough to be extracted into the ethanol aqueous extraction solvent. This number is likely to be less than the total acid number (TAN), a measure often used to evaluate crude petroleum for amenability to alkaline waterflooding.
The earlier eluting peaks are believed to represent methyl ester of lighter hydrocarbon carboxylic acids and the later eluting peaks are believed to represent methyl ester of the heavier organic acids. […]

[2] = tested on: Rhodococcus rhodochrous ATCC #53968; experiment: Growth of bacteria on crude oil with inhibitors, optical density at 600 nm; format: cell-based
Method: as §1
Digestion with the bacteria increases the total amount of carboxylic acids in all the samples. The digestions with the chemical beta-oxidation inhibitors produce about the same or a little more total methyl ester peaks than the bacterial digestion without an inhibitor. […] The later eluting peaks increase at a faster rate with the inhibitors than without. For example, the 12 day sample with no inhibitor increase from 5.9 to 45.9 area units for peaks up to 13 minutes. The sample with the acrylic acid inhibitor has an increase of from 5.9 to 43.7 area units, which is less than without inhibitor. The later eluting peaks increase from 3.6 to 14.3 without the inhibitor, but with acrylic acid the later peak areas increase to 22.5 area units. […] After 6 days of digestion the optical density had reached 2.23 for the uninhibited digestion as compared to 0.49 for the acrylic acid inhibited sample and 1.84 for the 2-bromooctanoic acid and 2.4 for the 2-bromohexadeconoic acid. After 12 days of digestion the uninhibited sample had reached 4.0 and the acrylic acid had increased to 1.7 and 2.2 and 2.4 for the other two inhibitors. Therefore, by this experimental analysis one can determine which inhibitors increase the carboxylic acid content or the acid number of the oil fastest with the least amount of oil consumption. The oil consumption can be determined by quantitation of remaining oil or by growth of bacteria were oil is the only carbon source. It appears that all the inhibitors helped reduce the utilization of fatty acids and the consumption of oil while producing an increase in acid number.

CCCCCCC(Br)C(=O)O (stereo not drawn) [Br C8, 2-bromooctanoic acid]
GC peak area, retention time 4.5 ([1]; 6 days): 0.351 area units
GC peak area, retention time 5.6 ([1]; 6 days): 0.835 area units
GC peak area, retention time 6.6 ([1]; 6 days): 2.783 area units
GC peak area, retention time 7.6 ([1]; 6 days): 2.476 area units
GC peak area, retention time 8.2 ([1]; 6 days): 0.682 area units
GC peak area, retention time 8.5 ([1]; 6 days): 1.443 area units
GC peak area, retention time 9.4 ([1]; 6 days): 1.146 area units
GC peak area, retention time 10.2 ([1]; 6 days): 1.618 area units
GC peak area, retention time 11 ([1]; 6 days): 2.608 area units
GC peak area, retention time 11.5 ([1]; 6 days): 1.69 area units
GC peak area, retention time 11.7 ([1]; 6 days): 3.004 area units
GC peak area, retention time 12.3 ([1]; 6 days): 1.604 area units
GC peak area, retention time 12.5 ([1]; 6 days): 4.566 area units
GC peak area, retention time 12.7 ([1]; 6 days): 1.145 area units
GC peak area, retention time 13 ([1]; 6 days): 1.421 area units
GC peak area, retention time 13.1 ([1]; 6 days): 2.61 area units
GC peak area, retention time 13.2 ([1]; 6 days): 3.047 area units
GC peak area, retention time 13.4 ([1]; 6 days): 2.196 area units
GC peak area, retention time 13.6 ([1]; 6 days): 1.314 area units
GC peak area, retention time 13.8 ([1]; 6 days): 3.341 area units
GC peak area, retention time 14 ([1]; 6 days): 1.661 area units
GC peak area, retention time 14.2 ([1]; 6 days): 0.963 area units
SubTotal peak area, later peaks eluting after 13 minutes ([1]; 6 days): 16.553 area units
SubTotal peak area, peaks eluting before 13 minutes ([1]; 6 days): 25.951 area units
Total GC area For 1 ml ([1]; 6 days): 250
Total of all selected peaks ([1]; 6 days): 42.504 area units
Total GC (all peaks integrated by the GC integrator) ([1]; 6 days): 77.5 area units
conv. To umoles FA ([1]; 6 days): 2.5 µmol
Cal. AN (calculated acid number) ([1]; 6 days): 0.14 mg of KOH
GC peak area, retention time 4.2 ([1]; 12 days): 0.47 area units
GC peak area, retention time 4.5 ([1]; 12 days): 0.943 area units
GC peak area, retention time 5.6 ([1]; 12 days): 1.656 area units
GC peak area, retention time 6.6 ([1]; 12 days): 4.625 area units
GC peak area, retention time 7.6 ([1]; 12 days): 3.349 area units
GC peak area, retention time 8.2 ([1]; 12 days): 0.497 area units
GC peak area, retention time 8.5 ([1]; 12 days): 1.763 area units
GC peak area, retention time 9.4 ([1]; 12 days): 0.681 area units
GC peak area, retention time 10.2 ([1]; 12 days): 0.387 area units
GC peak area, retention time 11 ([1]; 12 days): 0.985 area units
GC peak area, retention time 11.5 ([1]; 12 days): 3.548 area units
GC peak area, retention time 11.7 ([1]; 12 days): 2.41 area units
GC peak area, retention time 12.3 ([1]; 12 days): 2.973 area units
GC peak area, retention time 12.5 ([1]; 12 days): 5.664 area units
GC peak area, retention time 13 ([1]; 12 days): 2.785 area units
GC peak area, retention time 13.1 ([1]; 12 days): 4.367 area units
GC peak area, retention time 13.2 ([1]; 12 days): 7.327 area units
GC peak area, retention time 13.4 ([1]; 12 days): 8.161 area units
GC peak area, retention time 13.6 ([1]; 12 days): 4.176 area units
GC peak area, retention time 13.8 ([1]; 12 days): 4.901 area units
GC peak area, retention time 14 ([1]; 12 days): 4.709 area units
GC peak area, retention time 14.2 ([1]; 12 days): 1.74 area units
SubTotal peak area, later peaks eluting after 13 minutes ([1]; 12 days): 38.166 area units
SubTotal peak area, peaks eluting before 13 minutes ([1]; 12 days): 31.453 area units
Total GC area For 1 ml ([1]; 12 days): 373
Total of all selected peaks ([1]; 12 days): 69.619 area units
Total GC (all peaks integrated by the GC integrator) ([1]; 12 days): 115.7 area units
conv. To umoles FA ([1]; 12 days): 3.73 µmol
Cal. AN (calculated acid number) ([1]; 12 days): 0.21 mg of KOH
optical density ([2]; after 6 days of digestion, crude oil only carbon source): 1.84
optical density ([2]; after 12 days of digestion): 2.2
